This is an account of results in US9365541B2, “Compounds for use in the treatment of parasitic diseases” (IRBM—SCIENCE PARK S.P.A., priority 2012, dated 2016).

Each structure is given as a SMILES string.

For experiment [1], the system named is Plasmodium falciparum 3D7. Description: P. falciparum growth inhibition assay (Pf-LDH). It is filed as cell-based. The settings on record: Plasmodium falciparum, Erythrocyte; P. falciparum 3D7 infected erythrocytes, 72 h incubation, PfLDH readout. Here is the method: Basic culture of Plasmodium falciparum 3D7 parasites (Malaria Research and Reference Reagent Resource Center (MR4), MR4 Number: MRA-102).
Starting with a culture with a parasitemia of about 10% (and 5% hematocrit), 0.5 ml of the culture is placed in a fresh 100 mm petri dish with 0.95 ml of fresh erythrocytes (50% hematocrit) and 8.55 ml of culture medium, giving a new starting parasitemia of 0.5%. The petri dish is then incubated at 37° C. in a humidified gas-tight plastic box flushed with a gas mixture consisting of 93% N2, 4% CO2, and 3% O2. The culture medium is changed daily. The supernatant is removed by gently tipping the dish without disturbing the settled cells and aspirating the medium with a Pasteur pipette connected to a vacuum pump. A small amount of the concentrated cells is taken to prepare a blood smear for determination of the parasitemia. Normally, the cultures are split twice a week. If the parasites are growing very slowly then fresh erythrocytes are added to the culture no later than after 7 days. The cultures are then split 1:2 if the parasitemia is lower than 0.5%. To avoid the necessity of daily medium change on weekends, a culture with a 2.5% hematocrit and 0.1-0.2% parasitemia is set up and can be left for 3 days without medium change.
Standard medium consists of RPMI 1640, supplemented with 25 mM HEPES, 24 mM NaHCO3, 0.36 mM hypoxanthine, 100 μg/ml Neomycin, 5 g/1 Albumax® II, and washed human red blood cells (rbcs) A+.
P. falciparum Growth Inhibition Assay (Pf-LDH)
Compounds of the invention were assessed for in vitro antimalarial activity against a cloroquine sensitive (3D7) strain of the malaria parasite Plasmodium falciparum, using a lactate dehydrogenase (PfLDH) assay.
EC50 Determination by Pf-LDH Assay
384 plates (where compounds to be tested are dispensed) with 25 μl of parasite inoculum (parasitemia: 0.25%, hematocrit: 2%) are incubated at 37° C. in an atmosphere of 4% CO2, 3% O2, 93% N2. After 72 h of incubation, plates are frozen at −70° C. overnight and thawed at room temperature for at least 4 h. To evaluate PfLDH activity, 70 μl of freshly made reaction mix (143 mM sodium L-lactate, 143 μM 3-acetyl pyridine adenine dinucleotide (APAD), 178.75 μM Nitro Blue tetrazolium chloride (NBT), 286 μg/ml diaphorase (2.83 U/ml), 0.7% Tween 20, 100 mM Tris-HCl pH 8.0) is dispensed using a Multidrop Combi dispenser. Plates are shaken to ensure mixing and absorbance at 650 nm is monitored in a plate reader after 10 min of incubation at room temperature.
Negative controls (0% Effect) are produced by addition of DMSO to the proper wells.
Positive controls (100% Effect) are produced by addition of 150 nM Artemisinin (Sigma-Aldrich, 361593)
After result normalization using positive and negative controls, compound potency is determined by fitting the following equation: % inh=Ymin+(Ymax−Ymin)/(1+(X/EC50)^slope)) Where: • Ymin=minimum percentage effect • Ymax=maximum percentage effect • EC50=the concentration of the compound at which 50% effect is reached • Slope=the slope of the curve calculated at the EC50 Histone Hyperacetylation and Immunodetection of Altered Histone Modifications Assay

A further experiment deals with T1, human HDAC1 (Homo sapiens, UniProt Q13547).
T1 construct: made in house; host or cells: HeLa (ATCC CCL-2), mammalian cells
Description: Homo sapiens HDAC1 inhibition assay (Fluor-de-Lys, enzymatic). Type of experiment: biochemical. The settings on record: human HDAC enzymatic assay; read-out: hHDAC IC50. As for the experimental part:
Biology Homo sapiens HDAC1 Inhibition Assay Overview:
The aim of the assay is to evaluate the inhibition of the deacetylase activity of human HDAC1. To such goal an acetylated substrate is added to the enzyme mix; the resulting enzymatic product is converted to a fluorescent molecule by the addition the enzyme trypsine (developer solution). Fluorescence intensity is inversely proportional to the rate of inhibition of the enzyme (as indicated in the material section below).
Reagents of the HDAC Fluorescent Activity Assay are purchased from Enzo Life Sciences (http://www.enzolifesciences.com/BML-AK500/fluor-de-lys-hdac-fluorometric-activity-assay-kit/) and feature the Fluor-de-Lys™ Substrate/Developer System.
c) Trichostatin A (TSA) Stock
TSA (Sigma-Aldrich, T8552) is provided as a 10 mM stock solution in 100% dimethylsulfoxide (DMSO).
Diluted Substrate Solution
The final concentration in the assay is 20 μM.
Diluted Developer Solution
2 μM [final] TSA to this solution increases its ability to stop the reaction.
The HDAC1 enzyme is diluted in assay buffer prior to each use from a fresh aliquot of enzyme.
The final concentration in the assay is 1-2 nM.
Test compounds should be prepared in 100% DMSO and transferred to the assay by a nano volume dispenser to reach the appropriate concentration and the appropriate DMSO concentration (0.25%) in the reaction.

T1 sequence (Q13547 whole entry): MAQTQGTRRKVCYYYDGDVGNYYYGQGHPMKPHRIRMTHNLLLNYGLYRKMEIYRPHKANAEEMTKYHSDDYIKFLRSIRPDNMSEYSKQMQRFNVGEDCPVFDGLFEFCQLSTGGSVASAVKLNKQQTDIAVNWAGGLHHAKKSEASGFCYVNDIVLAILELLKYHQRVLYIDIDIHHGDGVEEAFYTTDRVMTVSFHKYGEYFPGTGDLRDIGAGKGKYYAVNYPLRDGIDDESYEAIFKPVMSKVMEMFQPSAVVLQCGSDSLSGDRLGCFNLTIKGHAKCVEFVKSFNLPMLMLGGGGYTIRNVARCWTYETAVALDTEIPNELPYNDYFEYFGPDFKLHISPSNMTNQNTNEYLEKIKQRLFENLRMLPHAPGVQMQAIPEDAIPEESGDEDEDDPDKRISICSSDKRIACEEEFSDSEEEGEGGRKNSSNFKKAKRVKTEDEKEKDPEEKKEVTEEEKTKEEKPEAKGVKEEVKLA

By EC50 is commonly meant the concentration that produces a half-maximal response. Lower therefore signals an effect from little substance. The IC50 is the midpoint of a concentration-inhibition curve. In experiment [1], `CNC(=O)CCCCC[C@H](NC(=O)c1cncs1)c1ncc(-c2cnc3[nH]ncc3c2)[nH]1` [Entry 159, (S)-N-(1-(5-(1H-pyrazolo[3,4-b]pyridin-5-yl)-1H-imidazol-2-yl)-7-(methylamino)-7-oxoheptyl)thiazole-5-carboxamide] displayed an EC50 of over 5000 nM. For the same compound, the IC50 at human HDAC1 was over 5000 nM. For the compound `CNC(=O)CCCCC[C@H](NC(=O)c1ccns1)c1ncc(-c2ccc(-c3ccn(C)n3)cc2)[nH]1` [Entry 16, (S)-N-(1-(5-(4-(1-methyl-1H-pyrazol-3-yl)phenyl)-1H-imidazol-2-yl)-7-(methylamino)-7-oxoheptyl)isothiazole-5-carboxamide], in experiment [1], the EC50 is under 1000 nM. The IC50 on human HDAC1 was 1000 to 5000 nM. `CNC(=O)CCCCC[C@H](NC(=O)c1cn2ccsc2n1)c1ncc(-c2ccc3ccccc3c2)[nH]1` [Entry 164, (S)-N-(7-(methylamino)-1-(5-(naphthalen-2-yl)-1H-imidazol-2-yl)-7-oxo-heptyl)imidazo[2,1-b]thiazole-6-carboxamide] returned a 50% effective concentration (EC50) in experiment [1] of over 5000 nM. Besides, at human HDAC1, the IC50 was over 5000 nM.

In the case of `CNC(=O)CCCCC[C@H](NC(=O)c1nnc(C)s1)c1ncc(-c2cc3ccccc3nc2OC)[nH]1` [Entry 31, (S)-N-(1-(5-(2-methoxyquinolin-3-yl)-1H-imidazol-2-yl)-7-(methylamino)-7-oxoheptyl)-5-methyl-1,3,4-thiadiazole-2-carboxamide], in experiment [1], the EC50 fell in the range of 1000 to 5000 nM. Also, the IC50 on human HDAC1 is under 1000 nM. On the same counts, the results for `CNC(=O)CCCCC[C@H](NC(=O)CCN1CCN(C)CC1)c1ncc(-c2cc3ccccc3nc2OC)[nH]1` [Entry 131] are 1000 to 5000 nM and under 1000 nM. As for `CNC(=O)CCCCC[C@H](NC(=O)CC1=CSC2=NCCCN12)c1ncc(-c2ccc3ccncc3c2)[nH]1` [Entry 155, (S)-7-(2-(6,7-dihydro-5H-thiazolo[3,2-a]pyrimidin-3-yl)acetamido)-7-(5-(isoquinolin-7-yl)-1H-imidazol-2-yl)-N-methyl-heptanamide], in experiment [1], the EC50 is 1000 to 5000 nM. Further, at human HDAC1, the IC50 lay within 1000 to 5000 nM.

`CNC(=O)CCCCC[C@H](NC(=O)[C@@H]1CCCN1C)c1ncc(-c2cc3ccccc3nc2OC)[nH]1` [Entry 104, (S)-N-((S)-1-(5-(2-methoxyquinolin-3-yl)-1H-imidazol-2-yl)-7-(methylamino)-7-oxoheptyl)-1-methylpyrrolidine-2-carboxamide] yielded an EC50 in experiment [1] of over 5000 nM. Further, the IC50 at human HDAC1 is over 5000 nM. In the case of `CNC(=O)CCCCC[C@H](NC(=O)[C@H]1CCN(C)C1)c1ncc(-c2ccc3ccccc3c2)[nH]1` [Entry 4, (S)-1-methyl-N-((S)-7-(methylamino)-1-(5-(naphthalen-2-yl)-1H-imidazol-2-yl)-7-oxo-heptyl)pyrrolidine-3-carboxamide], the EC50 in experiment [1] is 1000 to 5000 nM. Also, the concentration for half-maximal inhibition (IC50) on human HDAC1 is under 1000 nM. For `CNC(=O)CCCCC[C@H](NC(=O)CN1CCC(N(C)C)C1)c1ncc(-c2cc3ccccc3nc2OC)[nH]1` (stereo partly drawn) [Entry 32, (7S)-7-(2-(3-(dimethyl-amino)pyrrolidin-1-yl)acetamido)-7-(5-(2-methoxyquinolin-3-yl)-1H-imidazol-2-yl)-N-methylheptanamide], the EC50 in experiment [1] is over 5000 nM. At human HDAC1, the IC50 is under 1000 nM. On the same counts, the results for `CNC(=O)CCCCC[C@H](NC(=O)c1cncs1)c1ncc(-c2ccc3cc[nH]c3c2)[nH]1` [Entry 173, (S)-N-(1-(5-(1H-indol-6-yl)-1H-imidazol-2-yl)-7-(methylamino)-7-oxoheptyl)thiazole-5-carboxamide] are 1000 to 5000 nM and 1000 to 5000 nM. As to `COc1ccc2[nH]c(C)c(CC(=O)N[C@@H](CCCCCC(N)=O)c3nnc(-c4ccc5ccccc5c4)[nH]3)c2c1` [Entry 70, (S)-7-(2-(5-methoxy-2-methyl-1H-indol-3-yl)acetamido)-7-(5-(naphthalen-2-yl)-4H-1,2,4-triazol-3-yl)heptanamide], the EC50 in experiment [1] is under 1000 nM. Besides, at human HDAC1, the IC50 is under 1000 nM. The compound `CNC(=O)CCCCC[C@H](NC(=O)Cn1cnnc1)c1ncc(-c2ccc3ccccc3c2)[nH]1` [Entry 116, (S)-7-(2-(4H-1,2,4-triazol-4-yl)acetamido)-N-methyl-7-(5-(naphthalen-2-yl)-1H-imidazol-2-yl)heptanamide] returned an EC50 in experiment [1] of 1000 to 5000 nM. Moreover, at human HDAC1, the IC50 lay in the range of 1000 to 5000 nM.

Compound `CNC(=O)CCCCC[C@H](NC(=O)c1ccn(C(F)F)n1)c1ncc(-c2ccc(-c3ccn(C)n3)cc2)[nH]1` [Entry 214, (S)-1-(difluoromethyl)-N-(1-(5-(4-(1-methyl-1H-pyrazol-3-yl)phenyl)-1H-imidazol-2-yl)-7-(methylamino)-7-oxoheptyl)-1H-pyrazole-3-carboxamide] yielded an EC50 in experiment [1] of 1000 to 5000 nM. Besides, the half-maximal inhibitory concentration (IC50) on human HDAC1 is over 5000 nM. On the same counts, the results for `CNC(=O)CCCCC[C@H](NC(=O)c1cncs1)c1ncc(-c2ccc(-c3ccccc3)s2)[nH]1` [Entry 205, (S)-N-(7-(methylamino)-7-oxo-1-(5-(5-phenylthiophen-2-yl)-1H-imidazol-2-yl)heptyl)thiazole-5-carboxamide] are 1000 to 5000 nM and 1000 to 5000 nM. On the same counts, the results for `CNC(=O)CCCCC[C@H](NC(=O)c1ccc(N2CC(=O)NC2=O)cc1)c1ncc(-c2cc3ccccc3nc2OC)[nH]1` [Entry 183, (S)-4-(2,4-dioxoimidazolidin-1-yl)-N-(1-(5-(2-methoxyquinolin-3-yl)-1H-imidazol-2-yl)-7-(methylamino)-7-oxoheptyl)benzamide] are 1000 to 5000 nM and 1000 to 5000 nM. On the same counts, the results for `CNC(=O)CCCCC[C@H](NC(=O)CC1=CSC2=NCCCN12)c1ncc(-c2cc3ccccc3nc2OC)[nH]1` [Entry 201, (S)-7-(2-(6,7-dihydro-5H-thiazolo[3,2-a]pyrimidin-3-yl)acetamido)-7-(5-(2-methoxyquinolin-3-yl)-1H-imidazol-2-yl)-N-methylheptanamide] are under 1000 nM and 1000 to 5000 nM.

As to `CNC(=O)CCCCC[C@H](NC(=O)c1cncs1)c1ncc(-c2cc3ccccc3nc2OC)[nH]1` [Entry 178, (S)-N-(1-(5-(2-methoxyquinolin-3-yl)-1H-imidazol-2-yl)-7-(methylamino)-7-oxoheptyl)thiazole-5-carboxamide], the EC50 in experiment [1] was under 1000 nM. Take `CNC(=O)CCCCC[C@H](NC(=O)[C@H]1CCN(C)C1)c1ncc(-c2ccc3ccccc3c2)[nH]1` [Entry 149, (S)-1-methyl-N-((S)-7-(methylamino)-1-(5-(naphthalen-2-yl)-1H-imidazol-2-yl)-7-oxo-heptyl)pyrrolidine-3-carboxamide]: on human HDAC1, the half-inhibitory concentration (IC50) was 1000 to 5000 nM. On to `COc1ccc2[nH]c(C)c(CC(=O)N[C@@H](CCCCCC(N)=O)c3ncc(-c4ccc5ccccc5c4)[nH]3)c2c1` [Entry 96, (S)-7-(2-(5-methoxy-2-methyl-1H-indol-3-yl)acetamido)-7-(5-(naphthalen-2-yl)-1H-imidazol-2-yl)heptanamide], for which the EC50 in experiment [1] was under 1000 nM.
